A short description of data set [1]: Total Antioxidant Capacity Assay (Trolox standard curve, Cu+2 probe). Conditions: 10 mM antioxidant, compared with trolox. Here is the method:
Activity of antioxidants. […] A standard curve correlating the Trolox concentration to the antioxidant capacity was generated according to manufacturer's protocol. […] Two million 16HBE cells were seeded into each well of a 12-well plate and incubated overnight as described above. […] Finally, the insoluble cell debris was removed by centrifugation and the supernatant analyzed as described above to determine the total antioxidant capacity. All experiments were performed with 4 technical replicates and two biological replicates.

Data set [2] concerns 16HBE cells.
Method: Cells were seeded at a density of 25,000 cells/well in a 96-well plate and incubated overnight as described above. […] ALAMARBLUE® test reagent was added to each well, and the plates were incubated as described above. At 8-hour and 24-hour timepoints, absorbance was measured at 570 and 600 nm, normalized to media only controls, and analyzed per manufacturer's instructions. All experiments were performed with 6 technical replicates and 3 biological replicates.
Statistics. All data were analyzed using GraphPad Prism 7 (GraphPad Software, Inc., La Jolla, Calif.). […] Additionally, non-linear regression was used to deduce the lethal dose at median cell viability (LD50) for cell viability assays.
The subject of data set [3] is human bronchial epithelial (16HBE) cells. The experiment in a line: Cellular ROS/Superoxide Detection Assay in silver-exposed cells. It counts as cell-based. Here is the method:
Cellular ROS and superoxide levels were measured in 16HBE cells using a Cellular ROS/Superoxide Detection Assay Kit according to manufacturer's recommended protocol. Briefly, cells were seeded at a density of 25,000 cells/well in a black wall/clear bottom 96-well plate and incubated for 24 h as described above. Next, the feeding media was aspirated and cells were incubated with fresh media supplemented with or without 10 mM NAC for 2 h. […] Upon staining, the fluorescence signal from the two fluorescent dyes, green signal from ROS detection probe (Ex/Em=490/525 nm) and orange signal from superoxide detection probe (Ex/Em=550/620 nm), were quantified using a BioTek Instruments Cytation 5 Multimode Reader at 0, 4, 6, 8, and 24 h. […] All experiments were performed with 6 technical replicates and a minimum of 2 biological replicates.

Data set [4] has as its system 16HBE cells. The data set can be described thus: ATP content (ATP determination kit). It counts as cell-based, human. The settings on record: 10 mM NAC pre-incubation, silver acetate 8 h, vs cells exposed to silver alone.
Method: 50,000 16HBE cells were seeded in each well of a 96-well plate and the cells were allowed to attach. At 24 h, media was aspirated, and cells were pre-incubated with 80 μL of 0 or 10 mM concentrations of NAC for 2 h. […] Finally, the cell lysate was collected and the ATP concentration determined and correlated to an established standard curve. Briefly, a standard reaction mixture consisting of molecular grade water, reaction buffer, Dithiothreitol (DTT) solution, D-luciferin, and firefly luciferase at manufacturer recommended concentrations was prepared. Next, 10 μL of standard ATP solution or cell lysate was mixed with 90 μL standard reaction mixture in a 96-well white bottom plate and luminescence was measured at 560 nm. Background luminescence was subtracted from all readings and the data were normalized to drug free controls.
In data set [5] the test system is 16HBE cells. The data set can be described thus: Glucose/lactate (BioProfile analyzer) and metabolite pool size and labeling (GC-MS). It counts as cell-based, human. Here is the method:
Analysis of total metabolite pool size and metabolite labeling patterns using Gas Chromatography-Mass Spectroscopy. 16HBE cells were seeded at a density of 250,000 cells per dish in a 60 mm cell culture dish and incubated until they reached 90% confluency. During this period, feeding media was replaced every 48 h. Once confluent, the media was aspirated, cells were washed with 1× PBS, and incubated with 2 mL 0 or 10 mM NAC for 2 h. […] At 8 h, the feeding medium from each plate was collected, centrifuged at 1000 rpm for 5 min to remove any cell debris, and frozen at −80° C., until further analysis. The cells were washed twice with 1× PBS, re-suspended by gentle scraping in 1 mL chilled 50% methanol solution, cell lysate collected in centrifuge tubes, flash frozen using liquid nitrogen, and stored at −80° C. till analysis.
MEM and stock solution of 4 mM GLN-10 mM D-[U^13C]-GLC medium treated in an identical manner were used as controls.
Cell suspensions frozen in 50% methanol were thawed and subjected to three additional freeze-thaw cycles using liquid nitrogen and a water bath. Subsequently, the cell suspensions were centrifuged at 14,000 rpm for 10 min to remove cell debris, and the supernatants were transferred to individually labeled glass drying tubes. 10 μl of an internal standard (50 nmols of sodium 2-oxobutyrate) was added to each tube at this time, and the samples were air-dried on a heat block. The dried samples were derivatized by addition of 100 μl of Tri-sil HTP reagent (Thermo Scientific) to each tube, capping the tube, vortexing the samples, and placing them on the heat block for an additional 30 min. The derivatized samples were transferred to auto-injector vials and analyzed using gas chromatography-mass spectroscopy (GC-MS; Agilent Technologies, Santa Clara, Calif.). Separately, the cell pellets with residual cell lysate was collected, contents thoroughly mixed with 200 μL 0.1 N sodium hydroxide, and heated to 100° C. to extract and solubilize the proteins. The samples were cooled and analyzed using a standard BCA assay to quantify the protein content. All metabolite concentrations determined using the BioProfile Basic-4 analyzer (NOVA) and GC-MS were normalized with the protein content.

Data set [6] relates to 31 P. aeruginosa isolates. The data set can be described thus: MIC90/MBC90 over expanded isolate panel. It counts as cell-based, Pseudomonas aeruginosa.
Where [7] appears, read: 50 μg/mL silver acetate after 10 mM antioxidant pre-incubation.

Read-outs that look alike come from different tables or passages of the source.

The values that follow come from patent US20220183994A1, “DELIVERY DEVICES FOR LOCALIZED DELIVERY OF ANTIMICROBIAL, ANTI-INFLAMMATORY, AND ANTIOXIDANT AGENTS” (priority 2019, published 2022).

A word on the MIC90: it is the lowest concentration that inhibits either 90% of growth or 90% of the strains tested, depending on the study.

As to `O=C1O[C@H]([C@@H](O)CO)C(O)=C1O` [Ascorbic Acid, ascorbic acid], the “antioxidant capacity, trolox equivalent” value in data set [1] came out at 40 fold. Further, the cell survival in the data set on 16HBE cells [2] (setting [7]) is 22%; with 16HBE cells [2] (7.5 and 10 mM ascorbic acid pre-incubation, up to 100 μg/mL silver acetate) it was “significantly (p<0.05) higher”.
Turning to `CC(=O)N[C@@H](CS)C(=O)O` [NAC, N-acetyl cysteine], in data set [3], the “effect of NAC pre-incubation itself on superoxide levels” value is recorded as “no effect”. Also, the superoxide levels entry is “significantly (p≤0.001) lower” in data set [3] (10 mM NAC pre-incubation, 10, 20, and 50 μg/mL silver acetate, 8 and 24 hours); “significantly (p≤0.01) lower” in data set [3] (NAC pre-incubation, 100 μg/mL silver acetate, 8 hours); “not at 24 hours” in data set [3] (NAC pre-incubation, 100 μg/mL silver acetate, 24 hours). Also, the ROS levels result in data set [3] (10 mM NAC pre-incubation, silver acetate higher than 20 μg/mL, 8 and 24 hours) is reported as “significantly (p≤0.001) lower”. In addition, in data set [3] (subsides after 8 hours), the “ROS induced by NAC pre-incubation itself” value is on record as “initially induces ROS”. Besides, in the data set on 16HBE cells [4], the ATP production result is reported as “significantly higher”. In addition, the “lactate levels (GC-MS)” value in the data set with 16HBE cells [5] (NAC pre-incubated cells, 50 μg/mL silver acetate only) was “significantly higher”. The “citrate, glutamate, fumarate, and malate levels” value in the data set on 16HBE cells [5] (NAC pre-incubated cells, 30, 40, 50, and 75 μg/mL silver acetate) is given as “significantly (p≤0.05) higher”. Also, the aspartate levels entry in the data set with 16HBE cells [5] (NAC pre-incubated cells, 50 and 75 μg/mL silver acetate) is listed as “significantly (p≤0.05) higher”. Moreover, the “glucose consumption and lactate production” value in the data set on 16HBE cells [5] (cells pre-treated with 0 vs 10 mM NAC) is on record as “No significant difference”. Further, the “labeling patterns of key metabolites” value in the data set with 16HBE cells [5] (pre-incubation with NAC) is reported as “does not appreciably alter”. The same compound displayed a cell survival in the data set on 16HBE cells [2] (setting [7]) of 86%.
`CC(C)Cc1ccc(C(C)C(=O)O)cc1.[Ag]` (stereo not drawn) [Silver Ibuprofen, silver salt of ibuprofen] showed an MBC90 in data set [6] (concentration required to eradicate 90% of 31 P. aeruginosa isolates) of 4 µg/mL. The same compound gave an MIC90 in data set [6] (concentration required to inhibit 90% of 31 P. aeruginosa isolates) of 4 µg/mL.
